Eight compounds from patent publication US10363239B2, “Method for inhibiting growth of cancer cells” (Pain Therapeutics, Inc., priority 2013, dated 2019) can be followed below.

The structures appear in SMILES notation. Where two headings read alike, the source gives them in different places.

In one assay the test system is mu opiate receptor (MOR). As to the kind of experiment: MOR agonist activity using [35S]GTPγS binding assay in striatal membranes. The assay is classed as biochemical. Particulars: for MOR agonist activity ([35S]GTPγS binding), FLNA-Binding Compound as Agonist 1 μM + BFNA: 1 μM compound + 1 μM β-funaltrexamine. Put shortly:
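Striatal membranes (200 μg) were preincubated 5 min at 30 °C in HEPES pH 7.5 with 100 mM NaCl, 1 mM MgCl2 and 0.5 nM [35S]GTPγS, then 5 min more with 0.1–10 μM compound. Gαo was immunoprecipitated and bound radioactivity counted by scintillation.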

Assay [1] concerns the target FLNA pentapeptide of SEQ ID NO: 1 (Bn-VAKGL) (Homo sapiens, UniProt P21333). As to the kind of experiment: FITC-NLX-based FLNA screening assay (inhibition of FITC-naloxone binding to Bn-VAKGL on streptavidin plates). Particulars: 10 nM FITC-NLX.
[2] abbreviates: Series C-1, 0.1 μM compound, relative to DAMGO.
Where [3] appears, read: Series C-1, 0.1 μM compound, [35S]GTPγS binding to Gαo, striatal membranes.
Setting [4] is: Series C-1, 1 μM compound + 1 μM β-FNA.
Setting [5] is: Series C-1, 1 μM compound + β-FNA, relative to DAMGO + BFNA.
The mark [6] stands for this setting: Series C-1, 1 μM compound, relative to DAMGO.
[7] abbreviates: Series C-1, 1 μM compound, [35S]GTPγS binding to Gαo, striatal membranes.
Where [8] appears, read: FLNA-binding compound 0.01 μM, read-out: Percent Binding Inhibition.
[9] abbreviates: FLNA-binding compound 0.1 μM, read-out: Percent Binding Inhibition.
Where [10] appears, read: FLNA-binding compound 1 μM, read-out: Percent Binding Inhibition.
The mark [11] stands for this setting: 0.1 μM compound relative to DAMGO.
Where [12] appears, read: 1 μM compound + BFNA relative to DAMGO + BFNA.
Where [13] appears, read: 1 μM compound relative to DAMGO.
The mark [14] stands for this setting: read-out: Percent Binding Inhibition, FLNA-binding compound 0.01 μM.
[15] abbreviates: read-out: Percent Binding Inhibition, FLNA-binding compound 0.1 μM.
Setting [16] is: read-out: Percent Binding Inhibition, FLNA-binding compound 1 μM.

By inhibition is commonly meant the change of the read-out against control, counted positive when it falls. Take `COC(=O)c1ccc(S(=O)(=O)N2CCC3(CC2)OCCN3S(=O)(=O)c2ccc(C(=O)OC)cc2)cc1` [Compound C0028]: the “% DAMGO (0.1 μM)” value with mu opiate receptor (MOR) (setting [2]) came to 55.6%. For the same compound, the “Concentration of FLNA-Binding Compound as Agonist 0.1 μM” value (“Concentration … as Agonist 0.1 μM” below) with mu opiate receptor (MOR) (setting [3]) is reported as 93.9%. Besides, the “Concentration of FLNA-Binding Compound as Agonist 1 μM + BFNA” value (shortened to “Concentration … as Agonist 1 μM + BFNA”) in the assay on mu opiate receptor (MOR) (setting [4]) is reported as 78.4%. The “% DAMGO + BFNA” value with mu opiate receptor (MOR) (setting [5]) is reported as 472.3%. Besides, in the assay with mu opiate receptor (MOR) (setting [6]), the “% DAMGO (1 μM)” value amounted to 60.5%. In the assay on mu opiate receptor (MOR) (setting [7]), the “Concentration of FLNA-Binding Compound as Agonist 1 μM” value is on record as 132.4%. Besides, the inhibition at 0.01 µM in assay [1] (setting [8]) is 32.2%. For the same compound, the inhibition at 0.1 µM in assay [1] (setting [9]) is 36.6%. The inhibition at 1 µM in assay [1] (setting [10]) stood at 43.3%.

As to `O=S(=O)(c1ccc(F)c(F)c1)N1CCC2(CC1)OCCN2S(=O)(=O)c1ccc(F)c(F)c1` [Compound C0072], in the assay on mu opiate receptor (MOR) (setting [2]), the “% DAMGO (0.1 μM)” value was 100.3%. Further, the “Concentration … as Agonist 0.1 μM” value in the assay on mu opiate receptor (MOR) (setting [3]) is given as 172.7%. Also, the “Concentration … as Agonist 1 μM + BFNA” value in the assay with mu opiate receptor (MOR) (setting [4]) was 67.1%. Also, the “% DAMGO + BFNA” value in the assay with mu opiate receptor (MOR) (setting [5]) is listed as 194.5%. Besides, the “% DAMGO (1 μM)” value in the assay on mu opiate receptor (MOR) (setting [6]) turned out to be 117.9%. Moreover, the “Concentration of FLNA-Binding Compound as Agonist 1 μM” value in the assay with mu opiate receptor (MOR) (setting [7]) was 259.1%. For the same compound, the inhibition at 0.01 µM in assay [1] (setting [8]) was found to be 28.4%. Moreover, the inhibition at 0.1 µM in assay [1] (setting [9]) worked out at 37.4%. Further, in assay [1] (setting [10]), the inhibition at 1 µM was found to be 44%.

Regarding `CC1CCN(CC(O)COC2CC(C)CCC2C(C)C)CC1` (stereo not drawn) [Compound A0006], the “MOR agonist activity ([35S]GTPγS binding), FLNA-Binding Compound as Agonist 0.1 μM” value (from here on “MOR agonist activity … as Agonist 0.1 μM”) with mu opiate receptor (MOR) (0.1 μM compound) stood at 170.0%. For the same compound, the “% DAMGO (0.1 μM)” value in the assay with mu opiate receptor (MOR) (setting [11]) worked out at 113.8%. Moreover, the “MOR agonist activity ([35S]GTPγS binding), FLNA-Binding Compound as Agonist 1 μM” value in the assay on mu opiate receptor (MOR) (1 μM compound) came out at 190.9%. The “MOR agonist activity ([35S]GTPγS binding), FLNA-Binding Compound as Agonist 1 μM + BFNA” value (“MOR agonist activity … as Agonist 1 μM + BFNA” for short) in the assay with mu opiate receptor (MOR) is listed as 18.2%. Also, the “% DAMGO + BFNA” value in the assay on mu opiate receptor (MOR) (setting [12]) was determined as 68.7%. In addition, in the assay with mu opiate receptor (MOR) (setting [13]), the “% DAMGO (1 μM)” value is 82.9%. In assay [1] (setting [8]), the inhibition at 0.01 µM is 37.9%. In addition, in assay [1] (setting [9]), the inhibition at 0.1 µM was determined as 43.5%. Also, in assay [1] (setting [10]), the inhibition at 1 µM is 47.5%.

`COc1ccc(CCC(=O)CC2c3c(cc4c(c3OC)OCO4)CC[N+]2(C)C)cc1OC` (stereo not drawn) [Compound B0042]: the “% DAMGO (0.1 μM)” value in the assay on mu opiate receptor (MOR) (Series B, 0.1 μM compound, relative to DAMGO) is 39.6%. Moreover, the “MOR agonist activity, percent [35S]GTPγS binding at the stated compound concentration” value is recorded as 69.9% in the assay with mu opiate receptor (MOR) (Series B, 0.1 μM compound, [35S]GTPγS binding to Gαo, striatal membranes); 43.1% in the assay with mu opiate receptor (MOR) (Series B, 1 μM compound + 1 μM β-FNA); 107.5% with mu opiate receptor (MOR) (Series B, 1 μM compound, [35S]GTPγS binding to Gαo, striatal membranes). Moreover, the “% DAMGO + BFNA” value in the assay on mu opiate receptor (MOR) (Series B, 1 μM compound + β-FNA, relative to DAMGO + BFNA) turned out to be 163.9%. Also, in the assay with mu opiate receptor (MOR) (Series B, 1 μM compound, relative to DAMGO), the “% DAMGO (1 μM)” value was determined as 42.3%. In assay [1] (setting [14]), the inhibition at 0.01 µM was 40.8%. In assay [1] (setting [15]), the inhibition at 0.1 µM is 46.4%. Moreover, the inhibition at 1 µM in assay [1] (setting [16]) came to 51.6%.

On to `CC1CN(CC(O)COc2cccc(N(C)C)c2)CC(C)O1` (stereo not drawn) [Compound A0042], for which the “MOR agonist activity … as Agonist 0.1 μM” value in the assay with mu opiate receptor (MOR) (0.1 μM compound) came out at 147.5%. For the same compound, the “% DAMGO (0.1 μM)” value with mu opiate receptor (MOR) (setting [11]) came out at 75.2%. In addition, the “MOR agonist activity ([35S]GTPγS binding), FLNA-Binding Compound as Agonist 1 μM” value in the assay with mu opiate receptor (MOR) (1 μM compound) was 233.1%. The “MOR agonist activity … as Agonist 1 μM + BFNA” value in the assay with mu opiate receptor (MOR) is recorded as 89.5%. In addition, the “% DAMGO + BFNA” value in the assay with mu opiate receptor (MOR) (setting [12]) is 121.1%. Also, the “% DAMGO (1 μM)” value in the assay on mu opiate receptor (MOR) (setting [13]) was found to be 84.5%. Moreover, the inhibition at 0.01 µM in assay [1] (setting [8]) is 47.2%. Further, in assay [1] (setting [9]), the inhibition at 0.1 µM came out at 48.3%. Also, the inhibition at 1 µM in assay [1] (setting [10]) was determined as 55.8%.

Consider `Cc1ccccc1S(=O)(=O)N1CCC2(CC1)OCCN2S(=O)(=O)c1ccccc1C` [Compound C0015], for which, in the assay on mu opiate receptor (MOR) (setting [2]), the “% DAMGO (0.1 μM)” value worked out at 78.5%. In addition, in the assay on mu opiate receptor (MOR) (setting [3]), the “Concentration … as Agonist 0.1 μM” value is reported as 138.7%. Moreover, in the assay on mu opiate receptor (MOR) (setting [4]), the “Concentration … as Agonist 1 μM + BFNA” value is listed as 126.8%. The “% DAMGO + BFNA” value in the assay with mu opiate receptor (MOR) (setting [5]) turned out to be 193.0%. The “% DAMGO (1 μM)” value in the assay on mu opiate receptor (MOR) (setting [6]) amounted to 78.9%. For the same compound, in the assay with mu opiate receptor (MOR) (setting [7]), the “Concentration of FLNA-Binding Compound as Agonist 1 μM” value was found to be 204.7%. In assay [1] (setting [14]), the inhibition at 0.01 µM was 31.2%. For the same compound, in assay [1] (setting [15]), the inhibition at 0.1 µM was 40.6%. Further, the inhibition at 1 µM in assay [1] (setting [16]) was 45.5%.

Regarding `CC1CCC(C(C)C)C(OCC(O)CN2CCC(=O)CC2)C1` (stereo not drawn) [Compound A0060], the “MOR agonist activity … as Agonist 0.1 μM” value in the assay with mu opiate receptor (MOR) (0.1 μM compound) came out at 99.7%. The “% DAMGO (0.1 μM)” value in the assay with mu opiate receptor (MOR) (setting [11]) is reported as 63.9%. In the assay on mu opiate receptor (MOR) (1 μM compound), the “MOR agonist activity ([35S]GTPγS binding), FLNA-Binding Compound as Agonist 1 μM” value stood at 158.2%. For the same compound, in the assay on mu opiate receptor (MOR), the “MOR agonist activity … as Agonist 1 μM + BFNA” value was found to be 14.3%. The “% DAMGO + BFNA” value with mu opiate receptor (MOR) (setting [12]) was 35.8%. Also, the “% DAMGO (1 μM)” value with mu opiate receptor (MOR) (setting [13]) is on record as 68.6%. The inhibition at 0.01 µM in assay [1] (setting [14]) worked out at 32.4%. Besides, in assay [1] (setting [15]), the inhibition at 0.1 µM was determined as 39%. Moreover, in assay [1] (setting [16]), the inhibition at 1 µM came to 42%.

As to `COc1cccc(S(=O)(=O)N2CCC3(CC2)OCCN3S(=O)(=O)c2cccc(OC)c2)c1` [Compound C0002], in the assay with mu opiate receptor (MOR) (setting [2]), the “% DAMGO (0.1 μM)” value amounted to 51.4%. Besides, the “Concentration … as Agonist 0.1 μM” value with mu opiate receptor (MOR) (setting [3]) is listed as 88.4%. Also, the “Concentration … as Agonist 1 μM + BFNA” value in the assay with mu opiate receptor (MOR) (setting [4]) is on record as 3.9%. For the same compound, the “% DAMGO + BFNA” value in the assay with mu opiate receptor (MOR) (setting [5]) is 6.1%. Also, the “% DAMGO (1 μM)” value in the assay on mu opiate receptor (MOR) (setting [6]) is recorded as 33.9%. For the same compound, the “Concentration of FLNA-Binding Compound as Agonist 1 μM” value in the assay with mu opiate receptor (MOR) (setting [7]) stood at 93.8%. Besides, the inhibition at 0.01 µM in assay [1] (setting [14]) is 38.4%. Moreover, the inhibition at 0.1 µM in assay [1] (setting [15]) came out at 45.6%. Moreover, the inhibition at 1 µM in assay [1] (setting [16]) was 42.8%.
